# Where a name gives a salt, the structure may show the parent alone. Read-outs that look alike come from different tables or passages of the source.
# Experiments:
# [1] = molecular target: T1, human jejunal NK2 receptor (Homo sapiens, UniProt P21452); assay: Antagonism of iodinated tachykinin binding to NK2 receptor (125iodohistidyl-1-neurokinin A, HSKR-1 cell membranes)
# T1 construct: expressed in transfected cells; host or cells: HSKR-1 cells (mouse 3T3 fibroblasts)
# T1 sequence (P21452 1-398): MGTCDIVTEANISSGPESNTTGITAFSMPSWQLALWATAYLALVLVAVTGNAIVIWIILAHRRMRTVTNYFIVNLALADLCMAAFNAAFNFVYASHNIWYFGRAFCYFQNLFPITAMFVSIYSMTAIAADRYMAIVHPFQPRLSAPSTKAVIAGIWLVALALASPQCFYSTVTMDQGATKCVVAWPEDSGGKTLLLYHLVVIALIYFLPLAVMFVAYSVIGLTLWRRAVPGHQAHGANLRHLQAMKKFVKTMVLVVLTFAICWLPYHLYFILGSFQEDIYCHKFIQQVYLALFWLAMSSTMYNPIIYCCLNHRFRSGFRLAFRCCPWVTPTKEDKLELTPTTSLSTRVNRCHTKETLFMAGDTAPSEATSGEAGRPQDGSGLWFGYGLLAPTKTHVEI
# Experimental: (§1) The NK1 receptor affinity of proposed tachykinin antagonists was devaluated in guinea pig lungs (Keystone Biologicals, Cleveland, OH), affinity for the NK2 receptor evaluated in HSKR-1 cells (which are mouse 3T3 fibroblasts expressing the human jejunal NK2 receptor) and NK-3 receptor affinity was evaluated in freshly collected guinea pig cerebral cortex. Tissues or cells were homogenized with a Polytron in 15 volumes of 50 mM Tris-HCl buffer (pH 7.4, 4°C) and centrifuged. The pellet was resuspended in Tris-HCl buffer and was centrifuged; the pellet was washed twice by resuspension. The final pellet was resuspended at a concentration of 40 mg/ml for tissues (guinea pig lung and cerebral cortex) and 20 mg/ml for cells in incubation buffer and remained at room temperature for at least 15 min prior to use. Receptor binding was initiated by addition of 250 µl membrane preparation in duplicate to 0.1 nM of the following radioligands: ^125I-Bolton Hunter Lys-3 labeled substance P; ^125iodohistidyl-1-neurokinin A; and ^125I-Bolton Hunter labeled Lys-4 eledoisin in a final volume of 500 µl of buffer containing 50 mM Tris-HCl (pH 7.4 at room temperature), 0.1% bovine serum albumin, 2 mM MnCl2, 40 µg/ml bacitracin, 4 µg/ml leupeptin and chymostatin, 1 µM thiorphan and various doses of the putative tachykinin antagonists. Incubations were performed at room temperature for 90 min (NK1 receptor assays) or 2 hr (NK2 and NK3 receptor assays); binding was terminated by addition of 50 mM Tris-HCl buffer (pH 7.4, 4°C) and filtration under vacuum through GF/B filters presoaked with 0.1% polyethyleneimine (NK1 receptor assays) or 0.5% bovine serum albumin (NK2 and NK3 receptor assays). Filter bound radioactivity was quantitated in a gamma counter. Nonspecific binding was defined as binding in the presence of 1 µM substance P, neurokinin A, or eledoisin. Specific binding was calculated by subtracting nonspecific binding from total binding. Competition of iodinated SP, NKA, or eledoisin binding by test compounds or standards was expressed as a percentage of this maximum competition. IC50 values (concentration required to inhibit 50% of receptor binding) were generated for each of the test compounds by nonlinear regression using an iterative curve fitting program (GraphPAD Inplot, San Diego, CA).
# [2] = molecular target: T2, NK1 receptor (Cavia porcellus, UniProt P30547); assay: Antagonism of iodinated tachykinin binding to NK1 receptor (125I-Bolton Hunter Lys-3 labeled substance P, guinea pig lung membranes)
# T2 construct: Tissues or cells were homogenized with a Polytron in 15 volumes of 50 mM Tris-HCl buffer; tissue Keystone Biologicals, Cleveland, OH; host or cells: guinea pig lung membranes
# Experimental: as §1
# [3] = system: NKA-induced respiratory effects; assay: Antagonism of NKA aerosol induced respiratory effects in conscious guinea pigs (whole body plethysmography); format: in vivo, guinea pig; conditions: 20 min prior to NKA aerosol (0.05%); for DYSPNEA ONSET: mean and SEM
# Experimental: (§2) In vivo experiments were performed using male Duncan Hartley guinea pigs (250-350g). Changes in conscious breathing patterns were monitored in four animals simultaneously using modified whole body plethysmography consisting of four small plexiglass boxes each connected to a reference box via Validyne DP 45-16 differential pressure transducers. The 4 boxes were equipped with an air supply line (also used for aerosol delivery) and an exhaust air line. Supply and exhaust lines were of the same length and narrow bore and arose from a common supply chamber and vented to a common exhaust chamber. This system was used to ensure that fluctuations in supply air and atmospheric pressure would remain in phase and be eliminated from the net signal by the differential pressure transducers. The analog pressure signals were digitalized via a Data Translation DT2821 A to D board. Data were collected at a rate of 100 samples/second/animal. Each cycle of pressure change was analyzed using the following parameters: rising and falling slope determined between minimum and maximum pressures, the ratio of rising over falling slope, and the magnitude of the change between initial trough pressure and peak cycle pressure. Using these values (and observing the animals) the pressure cycles were characterized into normal breaths, forced exhalations (apparent by abdominal heaving), significant respiratory events (SREs; usually coughs, less often sneezes or gasps which were characterized by transient, extremely large pressure increases which were distinguishable from noise) and movement/noise with a PCAT 286 running a System V UNIX operating system. Dyspnea was defined as a significant, sustained increase in plethysmograph pressure which was associated with an observable shift to labored breathing in the animal.
# (§3) During the course of a typical experiment in which airway responsiveness to various bronchoconstricting agents was examined, aerosols were delivered for 19 min (0.33 ml/min) using a DeVilbiss Ultraneb 99 ultrasonic nebulizer and animals monitored during this time. Prior to nebulization, 1 min of resting breathing was collected to establish a baseline pressure. […] The vehicle for nebulization of all bronchoconstrictive agents was phosphate buffered saline (pH 7.4) which elicited no respiratory effects itself. Putative tachykinin antagonists were administered either (i.v.) 20 min prior to onset of aerosol exposure or orally 1 hour prior to onset (to guinea pigs after an overnight fast).
# Table 6 illustrates the effects of the compounds of Example 3; Example 20A; and Example 5A on respiratory effects induced by NKA aerosol. […] These effects were dose dependent i.e. the higher the dose of compound, the greater attenuation of NKA-mediated effects. […]
# Compounds were administered 20 min prior to initiation of NKA aerosol (0.05%). Values for each treatment represent the mean and SEM of data from 5-37 animals per dose.
# [4] = system: capsaicin-induced respiratory effects; assay: Antagonism of capsaicin aerosol induced respiratory effects in conscious guinea pigs (whole body plethysmography); format: in vivo, guinea pig; conditions: for DYSPNEA ONSET / MAXIMUM PRESSURE INCREASE (mmH2O) / SRE NUMBER*: mean and SEM; for SRE NUMBER*: number of coughs/gasps during 19 min exposure
# Experimental: as §2, §3
# Capsaicin aerosol is known to promote release of the tachykinins SP and NKA from sensory nerves in the airways of guinea pigs which may then act upon NK1 and NK2 receptors, respectively to elicit respiratory effects. […]
# (§4) Values are mean and SEM of data derived from number of animals indicated in parenthesis. Putative tachykinin antagonists were administered intravenously 20 min prior to initiation of capsaicin aerosol (0.001%). *SRE number indicates the number of coughs/gasps which occurred during the 19 min capsaicin exposure period.
# as §4, with “by oral gavage 1 hr” for “intravenously 20 min”
# [5] = molecular target: T3, NK-3 receptor (Cavia porcellus, UniProt P30098); assay: Antagonism of iodinated tachykinin binding to NK-3 receptor (125I-Bolton Hunter labeled Lys-4 eledoisin, guinea pig cerebral cortex membranes)
# T3 construct: freshly collected guinea pig cerebral cortex; from tissue; host or cells: guinea pig cerebral cortex membranes
# T3 sequence (P30098 1-440): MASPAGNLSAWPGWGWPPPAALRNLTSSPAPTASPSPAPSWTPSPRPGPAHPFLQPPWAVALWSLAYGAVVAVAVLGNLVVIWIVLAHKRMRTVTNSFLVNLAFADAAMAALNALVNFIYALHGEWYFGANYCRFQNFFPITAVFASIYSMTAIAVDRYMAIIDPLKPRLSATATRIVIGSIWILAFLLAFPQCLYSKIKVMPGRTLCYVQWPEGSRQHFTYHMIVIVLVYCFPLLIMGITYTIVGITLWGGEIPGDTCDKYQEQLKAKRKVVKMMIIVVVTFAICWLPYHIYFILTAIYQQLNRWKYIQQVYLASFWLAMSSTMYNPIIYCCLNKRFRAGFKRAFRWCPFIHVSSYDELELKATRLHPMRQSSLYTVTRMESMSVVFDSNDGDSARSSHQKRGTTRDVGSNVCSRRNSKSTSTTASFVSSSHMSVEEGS
# Experimental: as §1
# [6] = HSKR-1 cells (mouse 3T3 fibroblasts expressing human jejunal NK2 receptor), mean of several experiments, read-out: NK-2 IC50
# [7] = guinea pig lungs, mean of several experiments, read-out: NK-1 IC50
# [8] = 1 mg/kg intravenously 20 min prior to capsaicin aerosol (0.001%)
# [9] = 2.5 mg/kg intravenously 20 min prior to capsaicin aerosol (0.001%)
# [10] = 5 mg/kg intravenously 20 min prior to capsaicin aerosol (0.001%)
# [11] = 10 mg/kg intravenously 20 min prior to capsaicin aerosol (0.001%)
# T2 sequence (P30547 whole entry): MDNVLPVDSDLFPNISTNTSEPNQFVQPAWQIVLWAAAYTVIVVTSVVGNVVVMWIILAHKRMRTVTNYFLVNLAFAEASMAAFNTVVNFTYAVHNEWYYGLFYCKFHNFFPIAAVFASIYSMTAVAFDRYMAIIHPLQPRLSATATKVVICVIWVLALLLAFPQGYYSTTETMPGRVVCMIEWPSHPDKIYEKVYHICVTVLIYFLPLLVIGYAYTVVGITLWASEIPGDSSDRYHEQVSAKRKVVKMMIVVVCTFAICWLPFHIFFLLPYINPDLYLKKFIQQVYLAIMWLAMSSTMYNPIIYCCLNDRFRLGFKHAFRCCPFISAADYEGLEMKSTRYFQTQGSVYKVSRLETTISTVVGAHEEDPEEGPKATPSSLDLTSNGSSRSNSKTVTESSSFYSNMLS
structure (smiles),measurement,setting,value
"COc1ccccc1C(=O)N1CCC(CCN2CCC(C(N)=O)(c3ccccc3)CC2)(c2ccc(Cl)c(Cl)c2)C1 (centres unmarked) [Example 13, 1-[2-[3-(3,4-dichloro-phenyl)-1-(2-methoxy-benzoyl)-pyrrolidin-3-yl]-ethyl]-4-phenyl-piperidine-4-carboxylic acid amide]",IC50,[1]; [6],14 nM
"NC(=O)C1(c2ccccc2)CCN(CCC2(c3ccc4ccccc4c3)CCN(C(=O)c3ccccc3)C2)CC1 (racemic) [Example 8, 1-[2-(1-benzoyl-3-napthalen-2-yl-pyrrolidin-3-yl)-ethyl]-4-phenyl-piperidine-4-carboxylic acid amide]",IC50,[2]; [7],1480 nM
same,IC50,[1]; [6],94 nM
"COc1ccc(C2(CCN3CCC(C(N)=O)(c4ccccc4)CC3)CCN(C(=O)c3cc(OC)c(OC)c(OC)c3)C2)cc1OC (centres unmarked) [Example 23, 1-[2-[3-(3,4-dimethoxy-phenyl)-1-(3,4,5-trimethoxy-benzoyl)-pyrrolidin-3-yl]-ethyl]-4-phenyl-piperidine-4-carboxylic acid amide]",IC50,[2],20 nM
same,IC50,[1]; [6],2680 nM
"COc1cc(C(=O)N2CCC(CCN3CCC(C(N)=O)(c4ccccc4)CC3)(c3ccc(Cl)c(Cl)c3)C2)cc(OC)c1OC.Cl (single isomer, unassigned; (+)) [Example 20A, (+)-1-[2-[3-(3,4-dichloro-phenyl)-1-(3,4,5-trimethoxy-benzoyl)-pyrrolidin-3-yl] -ethyl]-4-phenyl-piperidine-4-carboxylic acid amide hydrochloride]",DYSPNEA INCIDENCE,[3]; 1 mg/kg,100% (10/10)
same,DYSPNEA ONSET,[3]; 1 mg/kg,451 ± 30 s
same,DYSPNEA INCIDENCE,[3]; 5 mg/kg,90% (9/10)
same,DYSPNEA ONSET,[3]; 5 mg/kg,706 ± 82 s
same,DYSPNEA INCIDENCE,[3]; 10 mg/kg,70% (7/10)
same,DYSPNEA ONSET,[3]; 10 mg/kg,829 ± 105 s
same,DYSPNEA INCIDENCE,[4]; [8],77.8% (7/9)
same,DYSPNEA ONSET,[4]; [8],331 ± 22 s
same,MAXIMUM PRESSURE INCREASE (mmH2O),[4]; [8],1.0 ± 0.1 mmH2O
same,SRE NUMBER*,[4]; [8],9.9 ± 2.7
same,DYSPNEA INCIDENCE,[4]; [9],100% (10/10)
same,DYSPNEA ONSET,[4]; [9],426 ± 57 s
same,MAXIMUM PRESSURE INCREASE (mmH2O),[4]; [9],0.6 ± 0.1 mmH2O
same,SRE NUMBER*,[4]; [9],8.3 ± 1.6
same,DYSPNEA INCIDENCE,[4]; [10],44.4% (4/9)
same,DYSPNEA ONSET,[4]; [10],597 ± 186 s
same,MAXIMUM PRESSURE INCREASE (mmH2O),[4]; [10],0.8 ± 0.06 mmH2O
same,SRE NUMBER*,[4]; [10],4.4 ± 1.9
same,DYSPNEA INCIDENCE,[4]; [11],55.6% (5/9)
same,DYSPNEA ONSET,[4]; [11],592 ± 71 s
same,MAXIMUM PRESSURE INCREASE (mmH2O),[4]; [11],0.8 ± 0.1 mmH2O
same,SRE NUMBER*,[4]; [11],3.3 ± 1.1
"COc1cc(C(=O)N2CCC(CCN3CCC(C(N)=O)(c4ccccc4)CC3)(c3ccccc3)C2)cc(OC)c1OC (centres unmarked) [Example 22A, 1-[2-[3-phenyl-1-(3,4,5-trimethoxy-benzoyl)-pyrrolidin-3-yl]-ethyl]-4-phenyl-piperidine-4-carboxylic acid amide hydrochloride]",IC50,[2],17.4 nM
same,IC50,[1],1190 nM
"COc1ccccc1CC(=O)N1CCC(CCN2CCC(C(N)=O)(c3ccccc3)CC2)(c2ccc(Cl)c(Cl)c2)C1 (centres unmarked) [Example 4, 1-(2-[3-(3,4-dichloro-phenyl)-1-[2-(2-methoxy-phenyl)-acetyl]-pyrrolidin-3-yl]-ethyl)-4-phenyl-piperidine-4-carboxylic acid amide]",IC50,[1]; [6],74 nM
same,IC50,[5],41 nM
NC(=O)C1(c2ccccc2)CCN(CCC2(c3ccc4ccccc4c3)CC(=O)N(Cc3ccccc3)C2)CC1 (racemic) [Example 12],IC50,[2]; [7],810 nM
same,IC50,[1]; [6],179 nM
COC(=O)CC[C@H](NC(=O)C1(c2ccccc2)CCN(CCC2(c3ccc(Cl)c(Cl)c3)CCN(C(=O)c3ccccc3)C2)CC1)C(=O)OC (some centres unmarked) [Example 6],IC50,[2]; [7],182 nM
same,IC50,[1],15 nM
